# Data published in US8247349B2, “Enhanced abscisic acid analog and fertilizer performance” (Valent BioSciences Corporation, priority 2007, dated 2012).
# Where two headings read alike, the source gives them in different places.
# What was measured:
# tomato plant leaves [1] = settings: in vivo
# [2] = system: tomato leaf transpiration; test: Tomato leaf transpiration inhibition after foliar application (LI-1600 Steady State Porometer); assay type: in vivo, Tomato (variety: Rutgers)
# tomato plant leaves [3] = test: Phytotoxicity study: number of injured leaves after foliar application; settings: for Number of injured leaves: 25 ppm ABA analog alone, one foliar application; for Phytotoxicity (in words): 25 ppm alone, 10-day experimental period
smiles,measurement,setting,value
"N.N.O=S(=O)(O)O [(NH4)2SO4, ammonium sulfate]",Phytotoxicity (in words),tomato plant leaves [1],showed phytotoxicity
"C#CC1(C)CC(=O)C=C(C)C1(O)/C=C/C(C)=C\C(=O)OC (centres unmarked) [PBI-429, 8′ acetylene-ABA methyl ester]",Transpiration rate (% of control),"[2]; 25 ppm alone, 1 day after treatment",60 % of control
same,Transpiration rate (% of control),"[2]; 25 ppm alone, 2 days after treatment",42 % of control
same,Transpiration rate (% of control),"[2]; 25 ppm alone, 3 days after treatment",64 % of control
same,Transpiration rate (% of control),"[2]; 25 ppm alone, 4 days after treatment",63 % of control
same,Transpiration rate (% of control),"[2]; 25 ppm alone, 7 days after treatment",87 % of control
same,"Transpiration rate (% of control), Average","[2]; 25 ppm alone, average over days 1-7",63 % of control
same,Number of injured leaves,tomato plant leaves [3]; 5 days after treatment,0.0
same,Number of injured leaves,tomato plant leaves [3]; 10 days after treatment,0.0
same,Phytotoxicity (in words),tomato plant leaves [3],did not show any phytotoxicity
"C#CC1(C)CC(=O)C=C(C)C1(O)C=CC(C)=CC(=O)O (centres unmarked) [PBI-524, 8′ acetylene-ABA, acid]",Number of injured leaves,tomato plant leaves [3]; 5 days after treatment,0.0
same,Number of injured leaves,tomato plant leaves [3]; 10 days after treatment,0.0
same,Phytotoxicity (in words),tomato plant leaves [3],did not show any phytotoxicity
"NC(N)=O [Urea, urea]",Transpiration rate (% of control),"[2]; 1 mM alone, 1 day after treatment",103 % of control
same,Transpiration rate (% of control),"[2]; 1 mM alone, 2 days after treatment",98 % of control
same,Transpiration rate (% of control),"[2]; 1 mM alone, 3 days after treatment",98 % of control
same,Transpiration rate (% of control),"[2]; 1 mM alone, 4 days after treatment",100 % of control
same,Transpiration rate (% of control),"[2]; 10 mM alone, 1 day after treatment",101 % of control
same,Transpiration rate (% of control),"[2]; 10 mM alone, 2 days after treatment",103 % of control
same,Transpiration rate (% of control),"[2]; 10 mM alone, 3 days after treatment",106 % of control
same,Transpiration rate (% of control),"[2]; 10 mM alone, 4 days after treatment",101 % of control
same,Transpiration rate (% of control),"[2]; 100 mM alone, 1 day after treatment",102 % of control
same,Transpiration rate (% of control),"[2]; 100 mM alone, 2 days after treatment",102 % of control
same,Transpiration rate (% of control),"[2]; 100 mM alone, 3 days after treatment",107 % of control
same,Transpiration rate (% of control),"[2]; 100 mM alone, 4 days after treatment",102 % of control
same,Effect on tomato leaf transpiration (in words),"[2]; 1, 10 or 100 mM alone, 4-day experimental period",Neither urea nor ammonium nitrate at any of three tested concentrations significantly reduced tomato leaf transpiration
